Consider two molecules from US4670440A (priority 1985, dated 1987).

“Also recorded” adds a separate entry of the source.

The subject of one series is Pseudomonas Aeruginosa. Briefly: Minimal inhibiting concentration (MIC), agar-diffusion technique, series diluting method. As to conditions: norfloxacin dissolved in dimethyl-sulphoxide, THA salt in water.
Another series has as its system E. Coli. The series is described as above. The class given is cell-based. The settings on record: in vitro; norfloxacin dissolved in dimethyl-sulphoxide, THA salt in water; listed as Norfloxacin-THA-salt.
Series [1] in a line: Absorption by the organism / through the intestines. In kind it is in vivo. The settings on record: compound according to the invention; no test data shown.
Series [2] can be described thus: Watersolubility (literature / general statement). In kind it is physicochemical. The settings on record: water, new compound of the Formula I.
Another series has as its system Staphylococcus aureus. Briefly: Minimal inhibiting concentration (MIC), agar-diffusion technique, series diluting method. The settings on record: norfloxacin dissolved in dimethyl-sulphoxide, THA salt in water. For orientation: In agar diffusion tests the substance spreads into inoculated agar from a disc or well.
The conditions of series [3]: because of the low solubility; cited from earlier work.
In series [4] the test system is Pseudomonas aeruginosa and gram positive and gram negative bacteria. The settings on record: Antimicrobial Agents and Chemotherapy 1980, 17, 103-108; cited from earlier work.
[5] abbreviates: in vitro, listed as Norfloxacin-THA-salt.

With `CCn1cc(C(=O)O)c(=O)c2cc(F)c(N3CCNCC3)cc21` [Compound of the Formula I, N,N,N-trimethyl-2-hydroxyethyl-ammonium-[1-ethyl-6-fluoro-4-oxo-7-(1-piperazinyl)-1,4-dihydro-quinoline-3-carboxylate]], the MIC value in the series on Pseudomonas Aeruginosa (setting [5]) was 0.25 to 0.5 µg/mL; in the series on E. Coli, 0.05 to 0.25 µg/mL; in the series with Staphylococcus aureus (setting [5]), 0.25 µg/mL. Besides, in series [1], the “absorption (in words)” value is on record as “better absorption; also recorded: quick absorption; also recorded: excellent absorption”. For the same molecule, in series [1], the biological utilization result is “good biological utilization”. In addition, the solubility in series [2] is over 1000 mg/mL.
`CCn1cc(C(=O)O)c(=O)c2cc(F)c(N3CCNCC3)cc21` [Norfloxacin, 1-ethyl-4-oxo-6-fluoro-7-(1-piperazinyl)-1,4-dihydro-quinoline-3-carboxylic acid, reference compound]: in series [3], the “material absorbed going through the intestines” value is “about 40%”. The minimal inhibitory concentration (MIC) in the series on Pseudomonas Aeruginosa (Pseudomonas aeruginosa, read-out: MIC value, in vitro) is 0.5 to 0.75 µg/mL; in the series with Staphylococcus aureus (Staphylococcus aureus, read-out: MIC value, in vitro), 0.25 to 0.5 µg/mL. The “activity in the therapy of urethral infections” value in series [4] was “good activity”.

By solubility is commonly meant the concentration that dissolves in the medium under given conditions. The MIC is the least concentration at which growth counts as inhibited.
